For one assay, the target named is His-AKT (Full Length) (Homo sapiens (Human), UniProt P31749). The experiment in a line: AKT enzyme assay. The class given is biochemical. As to conditions: read-out: IC50 AKT.
Another assay addresses P70S6K (T412E mutant) (Homo sapiens (Human), UniProt P23443, T412E). The experiment in a line: P70S6K enzyme assay. As to conditions: read-out: IC50 p70S6K. The class given is biochemical. The method, boiled down:
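Read-out is the substrate/phosphopeptide ratio from mobility-shift electrophoresis on a LabChip 3000.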

Chain of His-AKT (Full Length) (P31749 whole entry): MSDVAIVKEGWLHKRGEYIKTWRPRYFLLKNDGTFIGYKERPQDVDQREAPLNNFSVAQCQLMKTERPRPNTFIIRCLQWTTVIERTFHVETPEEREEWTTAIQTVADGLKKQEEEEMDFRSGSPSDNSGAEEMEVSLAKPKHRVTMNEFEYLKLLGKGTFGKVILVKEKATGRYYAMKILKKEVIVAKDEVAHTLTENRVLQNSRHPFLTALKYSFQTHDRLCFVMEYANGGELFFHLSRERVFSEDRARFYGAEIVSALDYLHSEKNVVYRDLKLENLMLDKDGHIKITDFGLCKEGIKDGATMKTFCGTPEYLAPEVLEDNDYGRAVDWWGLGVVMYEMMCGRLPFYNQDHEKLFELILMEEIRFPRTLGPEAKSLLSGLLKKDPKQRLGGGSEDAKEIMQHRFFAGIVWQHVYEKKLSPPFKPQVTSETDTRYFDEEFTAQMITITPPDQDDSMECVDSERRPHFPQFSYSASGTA
Chain of P70S6K (T412E mutant) (P23443 whole entry T412E): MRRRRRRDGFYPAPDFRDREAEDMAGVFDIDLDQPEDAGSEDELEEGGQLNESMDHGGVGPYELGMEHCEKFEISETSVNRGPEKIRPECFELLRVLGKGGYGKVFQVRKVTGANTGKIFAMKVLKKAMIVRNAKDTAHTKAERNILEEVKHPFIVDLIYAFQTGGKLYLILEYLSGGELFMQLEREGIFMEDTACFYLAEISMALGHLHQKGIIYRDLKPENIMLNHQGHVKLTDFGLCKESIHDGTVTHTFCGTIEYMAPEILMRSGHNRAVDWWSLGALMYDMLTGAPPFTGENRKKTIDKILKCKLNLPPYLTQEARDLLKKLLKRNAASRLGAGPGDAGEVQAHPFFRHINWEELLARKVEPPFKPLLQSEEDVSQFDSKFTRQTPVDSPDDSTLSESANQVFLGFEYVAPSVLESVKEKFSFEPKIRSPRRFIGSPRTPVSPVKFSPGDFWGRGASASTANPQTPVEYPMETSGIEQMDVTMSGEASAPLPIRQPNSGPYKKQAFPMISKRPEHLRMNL

The term IC50 denotes the concentration that inhibits the measured activity by half. On to `N#Cc1c(N)ncnc1N1CCC(c2nc(-c3ccc(F)c(C(F)(F)F)c3)cn2CCN)CC1` [Compound 158, 4-amino-6-(4-(1-(2-aminoethyl)-4-(4-fluoro-3-(trifluoromethyl)phenyl)-1H-imidazol-2-yl)piperidin-1-yl)pyrimidine-5-carbonitrile], for which the IC50 worked out at 3.6 nM on His-AKT (Full Length) and 1.5 nM at P70S6K (T412E mutant).
With `Cn1cc(-c2ccc(F)c(C(F)(F)F)c2)nc1C1CCN(c2ncncc2Br)CC1` [Compound 41, 5-Bromo-4-{4-[4-(4-fluoro-3-trifluoromethyl-phenyl)-1-methyl-1H-imidazol-2-yl]-piperidin-1-yl}-pyrimidine], the IC50 is 1400 nM at His-AKT (Full Length) and 3 nM at P70S6K (T412E mutant).
In the case of `CCc1c(N)ncnc1N1CCC(c2nc(-c3ccc(C(F)(F)F)cc3)cn2CCN2CCCC2)CC1` [Compound 271], the IC50 amounted to 180 nM on His-AKT (Full Length) and 12 nM at P70S6K (T412E mutant).
Consider `N#Cc1c(N)ncnc1N1CCC(c2nc(-c3cnc(F)c(Cl)c3)cn2CCN2CCC2)CC1` [Compound 205, 4-Amino-6-{4-[1-(2-azetidin-1-yl-ethyl)-4-(5-chloro-6-fluoro-pyridin-3-yl)-1H-imidazol-2-yl]-piperidin-1-yl}-pyrimidine-5-carbonitrile], for which the half-maximal inhibitory concentration (IC50) on His-AKT (Full Length) was 1.3 nM; on P70S6K (T412E mutant), 0.8 nM.
With `CN(C)CCn1cc(-c2ccc(F)c(C(F)(F)F)c2)nc1C1CCN(c2ncnc(N)c2C2=CCCC2)CC1` [Compound 90], the figures for the IC50 on His-AKT (Full Length) and on P70S6K (T412E mutant) were 31 nM and 3.1 nM, respectively.
Take `Cc1ccc(-c2c(N)ncnc2N2CCC(c3nc(-c4ccc(F)c(C(F)(F)F)c4)cn3C)CC2)cc1` [Compound 13, 6-{4-[4-(4-Fluoro-3-trifluoromethyl-phenyl)-1-methyl-1H-imidazol-2-yl]-piperidin-1-yl}-5-p-tolyl-pyrimidin-4-ylamine]: the half-maximal inhibitory concentration (IC50) at His-AKT (Full Length) was found to be 8300 nM; at P70S6K (T412E mutant), 7.3 nM.
The matching figures for `CCc1c(N)ncnc1N1CCC(c2nc(-c3ccc(C(F)(F)F)c(F)c3)cn2CCN2CCCC(F)(F)C2)CC1` [Compound 248]: 1000 nM and 16 nM.
For the compound `CCN(CCn1cc(-c2ccc(F)c(C)c2)nc1C1CCN(c2ncnc(N)c2C(N)=O)CC1)C(C)C` [Compound 351], the figures for the IC50 at His-AKT (Full Length) and at P70S6K (T412E mutant) were 48 nM and 27 nM, respectively.
For `CCc1c(N)ncnc1N1CCC(c2nc(-c3cccc(C(F)(F)F)n3)cn2CCN2CCC2)CC1` [Compound 119, 6-(4-(1-(2-(azetidin-1-yl)ethyl)-4-(6-(trifluoromethyl)pyridin-2-yl)-1H-imidazol-2-yl)piperidin-1-yl)-5-ethylpyrimidin-4-amine] the same measures were 420 nM and 25 nM.
For `NC(=O)c1c(N)ncnc1N1CCC(c2nc(-c3cccc(Cl)c3)cn2CCN2CCCC2)CC1` [Compound 336] the same measures were 76 nM and 7.6 nM.
In the case of `N#Cc1c(N)ncnc1N1CCC(c2nc(-c3ccccc3)cn2CCN2CCC2)CC1` [Compound 131, 4-amino-6-(4-(1-(2-(azetidin-1-yl)ethyl)-4-phenyl-1H-imidazol-2-yl)piperidin-1-yl)pyrimidine-5-carbonitrile], the IC50 at His-AKT (Full Length) was 165 nM; on P70S6K (T412E mutant), 5.7 nM.
The matching figures for `Nc1ncnc(N2CCC(c3nc(-c4ccnc(C(F)(F)F)c4)cn3CCN3CCC3)CC2)c1OCC(F)(F)F` [Compound 118, 6-(4-(1-(2-(azetidin-1-yl)ethyl)-4-(2-(trifluoromethyl)pyridin-4-yl)-1H-imidazol-2-yl)piperidin-1-yl)-5-(2,2,2-trifluoroethoxy)pyrimidin-4-amine]: 21 nM and 9.7 nM.
For `CN1CC(Cn2cc(-c3ccc(F)c(C(F)(F)F)c3)nc2C2CCN(c3ncnc(N)c3C(N)=O)CC2)C1` [Compound 156, 4-amino-6-(4-(4-(4-fluoro-3-(trifluoromethyl)phenyl)-1-((1-methylazetidin-3-yl)methyl)-1H-imidazol-2-yl)piperidin-1-yl)pyrimidine-5-carboxamide], the results for the IC50 on His-AKT (Full Length) and at P70S6K (T412E mutant) were 81 nM and 4.9 nM, respectively.
The matching figures for `CCc1c(N)ncnc1N1CCC(c2nc(-c3ccc(F)c(C)c3)cn2CCN(CC)C(C)C)CC1` [Compound 300]: 8.9 nM and 3.1 nM.
The matching figures for `Nc1ncnc(N2CCC(c3nc(-c4ccc(F)c(C(F)(F)F)c4)cn3CCN3CCCC3)CC2)c1-c1ccc(F)c(F)c1` [Compound 59]: 110 nM and 9.6 nM.
For the compound `NC(=O)c1c(N)ncnc1N1CCC(c2nc(-c3ccoc3)cn2CCN2CCC2)CC1` [Compound 133, 4-amino-6-(4-(1-(2-(azetidin-1-yl)ethyl)-4-(furan-3-yl)-1H-imidazol-2-yl)piperidin-1-yl)pyrimidine-5-carboxamide], the values for the IC50 on His-AKT (Full Length) and on P70S6K (T412E mutant) were 3600 nM and 46 nM, respectively.
For `N#Cc1c(N)ncnc1N1CCC(c2nc(-c3ccc(F)c(C(F)(F)F)c3)cn2C2CCNC2)CC1` (stereo not shown) [Compound 137, 4-amino-6-(4-(4-(4-fluoro-3-(trifluoromethyl)phenyl)-1-(pyrrolidin-3-yl)-1H-imidazol-2-yl)piperidin-1-yl)pyrimidine-5-carbonitrile] the same measures were 11 nM and 2.7 nM.
The matching figures for `Nc1ncnc(N2CCC(c3nc(-c4cccc(C(F)(F)F)c4)cn3CCN3CCCC3)CC2)c1C1CCC1` [Compound 261]: 8.1 nM and 6.3 nM.
With `NC(=O)c1c(N)ncnc1N1CCC(c2nc(-c3ccc(F)c(OC(F)F)c3)cn2CCN2CCC2)CC1` [Compound 338], the half-maximal inhibitory concentration (IC50) on His-AKT (Full Length) amounted to 29 nM; on P70S6K (T412E mutant), 2 nM.
The matching figures for `CCc1c(N)ncnc1N1CCC(c2nc(-c3ccc(F)cc3)cn2CCN2CC3(COC3)C2)CC1` [Compound 197, 5-Ethyl-6-(4-{4-(4-fluoro-phenyl)-1-[2-(2-oxa-6-aza-spiro[3.3]hept-6-yl)-ethyl]-1H-imidazol-2-yl}-piperidin-1-yl)-pyrimidin-4-ylamine]: 130 nM and 6.3 nM.
With `CCc1c(N)ncnc1N1CCC(c2nc(-c3cccc(C(F)(F)F)c3)cn2CCN2CCCC2)CC1` [Compound 272], the concentration for half-maximal inhibition (IC50) worked out at 9.6 nM at His-AKT (Full Length) and 3.5 nM at P70S6K (T412E mutant).
With `CCc1c(N)ncnc1N1CCC(c2nc(-c3ccc(F)c(F)c3)cn2CCN2CCC23COC3)CC1` [Compound 203, 6-(4-{4-(3,4-Difluoro-phenyl)-1-[2-(6-oxa-1-aza-spiro[3.3]hept-1-yl)-ethyl]-1H-imidazol-2-yl}-piperidin-1-yl)-5-ethyl-pyrimidin-4-ylamine], the figures for the IC50 at His-AKT (Full Length) and on P70S6K (T412E mutant) were 2500 nM and 30 nM, respectively.
The matching figures for `Nc1ncnc(N2CCC(c3nc(-c4ccc(C(F)(F)F)c(F)c4)cn3CCN3CCCCC3)CC2)c1C1CCC1` [Compound 253]: 28 nM and 19 nM.
The matching figures for `CCOc1c(N)ncnc1N1CCC(c2nc(-c3ccc(F)c(C)c3)cn2CCO)CC1` [Compound 396, 2-[2-[1-(6-Amino-5-ethoxy-pyrimidin-4-yl)-piperidin-4-yl]-4-(4-fluoro-3-methyl-phenyl)-imidazol-1-yl]-ethanol]: 340 nM and 3.5 nM.
In the case of `CCc1c(N)ncnc1N1CCC(c2nc(-c3ccnc(OC)c3)cn2CCN2CCC2)CC1` [Compound 112, 6-(4-(1-(2-(azetidin-1-yl)ethyl)-4-(2-methoxypyridin-4-yl)-1H-imidazol-2-yl)piperidin-1-yl)-5-ethylpyrimidin-4-amine], the IC50 turned out to be 940 nM on His-AKT (Full Length) and 64.5 nM on P70S6K (T412E mutant).
Regarding `CCOc1c(N)ncnc1N1CCC(c2nc(-c3ccc(F)c(C(F)(F)F)c3)cn2CCN(C)C)CC1` [Compound 291], the values for the IC50 on His-AKT (Full Length) and at P70S6K (T412E mutant) were 8 nM and 2.6 nM, respectively.
For `CCN(CCn1cc(-c2ccc(F)c(C)c2)nc1C1CCN(c2ncnc(N)c2OC(C)C)CC1)C(C)C` [Compound 302] the same measures were 6.3 nM and 12 nM.
Consider `N#Cc1c(N)ncnc1N1CCC(c2nc(-c3ccccc3F)cn2CCN2CCC2)CC1` [Compound 353, 4-Amino-6-{4-[1-(2-azetidin-1-yl-ethyl)-4-(2-fluoro-phenyl)-1H-imidazol-2-yl]-piperidin-1-yl}-pyrimidine-5-carbonitrile], for which the IC50 at His-AKT (Full Length) was determined as 140 nM; on P70S6K (T412E mutant) it was 14 nM.
For the compound `Nc1ncnc(N2CCC(c3nc(-c4ccc(F)cc4)cn3CCN3CCCC3)CC2)c1Br` [Compound 227], the half-inhibitory concentration (IC50) was 2.9 nM at His-AKT (Full Length) and 1.4 nM on P70S6K (T412E mutant).
Take `CCc1cc(-c2cn(CCN3CCC3)c(C3CCN(c4ncnc(N)c4C#N)CC3)n2)ccn1` [Compound 318]: the IC50 on His-AKT (Full Length) stood at 15 nM; at P70S6K (T412E mutant) it was 1.4 nM.
For `CCc1c(N)ncnc1N1CCC(c2nc(-c3ccc(C(F)(F)F)c(F)c3)cn2CCN2CC[C@@H](F)C2)CC1` [Compound 246] the same measures were 25 nM and 1.7 nM.
`Nc1ncnc(N2CCC(c3nc(-c4ccc(F)c(C(F)(F)F)c4)cn3CCN3CCC3)CC2)c1N` [Compound 284]: the IC50 was found to be 51.5 nM on His-AKT (Full Length) and 10.6 nM at P70S6K (T412E mutant).
Consider `CCc1c(N)ncnc1N1CCC(c2nc(-c3ccc(Cl)c(F)c3)cn2CCN2CCCC2)CC1` [Compound 251], for which the IC50 came to 76 nM on His-AKT (Full Length) and 2.6 nM at P70S6K (T412E mutant).
For `CNCCn1cc(-c2ccc(F)c(C)c2)nc1C1CCN(c2ncnc(N)c2C#N)CC1` [Compound 394, 4-Amino-6-{4-[4-(4-fluoro-3-methyl-phenyl)-1-(2-methylamino-ethyl)-1H-imidazol-2-yl]-piperidin-1-yl}-pyrimidine-5-carbonitrile] the same measures were 1.7 nM and 0.9 nM.
The matching figures for `CC(C)c1c(N)ncnc1N1CCC(c2nc(-c3ccc(F)c(C(F)(F)F)c3)cn2CCN2CCC2)CC1` [Compound 114, 6-(4-(1-(2-(azetidin-1-yl)ethyl)-4-(4-fluoro-3-(trifluoromethyl)phenyl)-1H-imidazol-2-yl)piperidin-1-yl)-5-isopropylpyrimidin-4-amine]: 6.6 nM and 3.6 nM.

The record behind these values is patent US9145392B2, “Imidazole amines as modulators of kinase activity” (Merck Patent GmbH, priority 2011, dated 2015).
